# Assay results as given in article PMC4065032, “Biochemical Characterization of Quinolinic Acid Phosphoribosyltransferase from Mycobacterium tuberculosis H37Rv and Inhibition of Its Activity by Pyrazinamide” (PLoS ONE, 2014).
# B1: Quinolinic acid phosphoribosyltransferase from Mycobacterium tuberculosis H37Rv (recombinant, C-terminal 6xHis) (enzyme)
# chain: MGLSDWELAAARAAIARGLDEDLRYGPDVTTLATVPASATTTASLVTREAGVVAGLDVALLTLNEVLGTNGYRVLDRVEDGARVPPGEALMTLEAQTRGLLTAERTMLNLVGHLSGIATATAAWVDAVRGTKAKIRDTRKTLPGLRALQKYAVRTGGGVNHRLGLGDAALIKDNHVAAAGSVVDALRAVRNAAPDLPCEVEVDSLEQLDAVLPEKPELILLDNFAVWQTQTAVQRRDSRAPTVMLESSGGLSLQTAATYAETGVDYLAVGALTHSVRVLDIGLDM
# notes: also called MtQAPRTase; QAPRTase; not shown: His6, C-terminal, kept
# How the values were obtained:
# hQAPRTase = details: cited from earlier work
# SEC = target: the molecule itself; assay: SEC
Molecule,Km (hQAPRTase),kcat (hQAPRTase; recalculated from Vmax),stoichiometry N (SEC)
"O=C(O)c1cccnc1C(=O)O [QA, 2,3-pyridinedicarboxylic acid]",22 µM,0.04 s⁻¹,
B1,,,2
